Laboratory results taken from patent US20230077896A1, “MICROBIAL LIPID PRODUCTION UTILIZING POST-FERMENTATION INDUSTRIAL WASTE STREAM FEEDSTOCKS” (C16 Biosciences, Inc., priority 2020, published 2023).
Read-outs that look alike come from different tables or passages of the source.

Key:
Trichosporon cutaneuin = details: Wang et al. 2016; cited from earlier work
[1] = test system: Y. lipolytica strain poll g; assay: 4-hydroxybenzaldehyde spike-in titration in YPG media, Y. lipolytica; type: cell-based, Yarrowia lipolytica; details: concentrations tested 1 μM-100 mM
R. toruloides strain A = assay: 4-hydroxybenzaldehyde spike-in titration in YPG media, R. toruloides; type: cell-based, Rhodosporidium toruloides
[2] = test system: Rhodosporidium toruloides; details: Hu et al. 2009; cited from earlier work
[3] = test system: Pseudoperonospora cubensis; details: Zhu et al. 2018; cited from earlier work
Pantoea agglomerans = details: at concentrations of 10 ppm, single inhibitor; cited from earlier work
Fusarium avenaceum = details: cited from earlier work
microorganism growth = details: tens of micromolar, e.g.; cited from earlier work
S. cerevisiae [4] = details: cited from earlier work
S. cerevisiae [5] = assay: Inhibition of ethanol production by S. cerevisiae (Banergee et al.); type: cell-based, Saccharomyces cerevisiae; details: molar conversion in parentheses
Method: In some embodiments, the feedstock comprises furfural. Furfural is also known as furan-2-carboxaldehyde, feral, furfuraldehyde, 2-furaldehyde, and pyromucic aldehyde. Within the art, furfural is a well-known and potent inhibitor of microbial fermentation. […] See also, Sitepu et al., “Carbon source utilization and inhibitor tolerance of 45 oleaginous yeast species,” J Ind Microbiol Biotechnol 2014;41(7):1061-1070. In some embodiments, the feedstock comprises at least 10 μM, 20 μM, 30 μM, 40 μM, 50 μM, 60 μM, 70 μM, 80 μM, 90 μM, 100 μM, 200 μM, 300 μM, 400 μM, 500 μM, 600 μM, 700 μM, 800 μM, 900 μM, 1 mM, 2 mM, 3 mM, 4 mM, 5 mM, 6 mM, 7 mM, 8 mM, 9 mM, 10 mM, 20 mM, 30 mM, 40 mM, 50 mM, 60 mM, 70 mM, 80 mM, 90 mM, or 100 mM furfural, or any ranges or subranges therebetween. In some embodiments, the feedstock comprises at least 10 μM furfural.

Saccharomyces cerevisiae = details: concentrations in the mM range; cited from earlier work
Aspergillus fumigatus = details: Ryan et al. 2011; cited from earlier work
Eutypa lata = details: as low as; lowered growth rate even after renewal of culture medium; cited from earlier work
[6] = test system: Y. lipolytica strain po 1 g; assay: Batch fermentation with glycerol supplement, Y. lipolytica; type: cell-based, Yarrowia lipolytica; details: 50 g/L glycerol added to 30% corn stillage syrup feedstock, 6 days
Text: (§1) For the purposes of this example, the exemplary feedstock employed was a 30% corn stillage syrup-based feedstock, comprising 30% v/v corn stillage syrup, with insoluble components removed via centrifugation, diluted in deionized water.
(§2) Four strains of oleaginous microorganisms were selected to investigate the potential of the exemplary feedstock to support the growth of oleaginous microorganisms: R. toruloides strain A, R. toruloides strain B, Y. lipolytica strain po 1 g, and L. starkeyi strain CBS 1807. As a control, a canonical non-oleaginous yeast, P. pastoris strain X33, was included for comparison.
(§3) Fermentations were run in batch format for 6 days. Dry cell weight, oil titer and lipid content were evaluated as described in Example 5.
(§4) 50 g/L glycerol was added to the feedstock and fermentations were again run for 6 days. Dry cell weight and oil titer were evaluated and compared to the results of the batch fermentation.

[7] = test system: L. starkeyi strain CBS 1807; assay: Batch fermentation with glycerol supplement, L. starkeyi; type: cell-based, Lipomyces starkeyi; details: 50 g/L glycerol added to 30% corn stillage syrup feedstock, 6 days
Text: as §1, §2, §3, §4

[8] = test system: R. toruloides strain A, R. toruloides strain B; assay: Batch fermentation with glycerol supplement, R. toruloides; type: cell-based, Rhodosporidium toruloides; details: 50 g/L glycerol added to 30% corn stillage syrup feedstock, 6 days
Text: as §1, §2, §3, §4

Trichophyton rubrum = details: Kamp et al., Mycoses 2005; cited from earlier work
[9] = test system: ethanol-producing yeast and bacteria; details: as low as; cited from earlier work

For `O=Cc1ccc(O)cc1` [4-hydroxybenzaldehyde], the “concentration showing inhibition of Trichosporon cutaneum” value (Trichosporon cutaneuin) is given as 16 mM, the “effect on growth of the Y. lipolytica strain” value [1] is given as “no statistically significant effect” and the “effect on oil production of the Y. lipolytica strain” value [1] is given as “no statistically significant effect”. For the same molecule, the “increase in oil titer as compared to the no inhibitor control” value (R. toruloides strain A; 100 μM condition) was “over 50%”, the “increase in oil titer as compared to the no inhibitor control” value (R. toruloides strain A; 10 mM condition) was “over 50%” and the “growth (DCW) of the R. toruloides strain” value (R. toruloides strain A; 100 mM inhibitor in YPG media) was “inhibited altogether”. The “growth (DCW) of the R. toruloides strain” value (R. toruloides strain A; all concentrations tested (1 μM-10 mM) except 100 mM, YPG media, vs no inhibitor control) was “unaffected”, the “effect on oil titer of R. toruloides” value (R. toruloides strain A; increasing concentrations between 1 μM and 10 mM) was “lipogenic effect” and the “concentration showing inhibition of Rhodosporidium toruloides” value [2] was 9 mM.

For `O=C1CC[C@@H](C(=O)O)N1` [Pyroglutamic acid], the “inhibitor of fungal species” value [3] is given as “known inhibitor”.

For `CC1(O)CCOC(=O)C1` (racemic) [mevalonic acid lactone, 4-Hydroxy-4-methyltetrahydro-2H-pyran-2-one], the “inhibition of growth of Pantoea agglomerans” value (Pantoea agglomerans) is given as 10-15%, the “growth of Fusarium avenaceum” value (Fusarium avenaceum) is given as “inhibit the growth” and the “concentration at which it can act as an inhibitor for microorganism growth” value (microorganism growth) is given as 67 µM.

In the case of `O=Cc1ccco1` [furfural], the “concentration inhibiting ethanol production” value (S. cerevisiae [4]; as low as) is listed as 0.5 g/L, the “concentration of complete inhibition of ethanol production” value (S. cerevisiae [4]; complete inhibition) is listed as 4 g/L and the “concentration inhibiting ethanol production” value (S. cerevisiae [5]; as low as) is listed as ~10 mM. The “concentration of complete inhibition of ethanol production” value (S. cerevisiae [5]; complete inhibition) was ~40 mM.

For `O=C(O)c1ccccc1O` [salicylic acid], the “effects against Saccharomyces cerevisiae” value (Saccharomyces cerevisiae) is given as “fungicidal effects”, the inhibitory concentration (Aspergillus fumigatus) is given as 0.25 mg/mL and the “concentration causing fungistatic effects in Eutypa lata” value (Eutypa lata) is given as 1 mM.

In the case of `OCC(O)CO` [glycerol], the “growth (DCW) with added glycerol” value [6] is reported as “significantly less growth”, the “oil titer with added glycerol” value [6] is reported as “only marginally improved” and the “growth (DCW) with added glycerol” value [7] is reported as “significantly less growth”. The “oil titer with added glycerol” value [7] was “only marginally improved”, the “growth (DCW) with added glycerol vs without” value [8] was “dramatically increased” and the “oil production with added glycerol vs without” value [8] was “dramatically increased”.

In the case of `NCC(=O)CCC(=O)O` [5-aminolevulinic acid], the “concentration showing inhibition of Trichophyton rubrum” value (Trichophyton rubrum) is listed as “above 10 mM”.

For `O=C(O)C(O)Cc1ccc(O)cc1` (centres unmarked) [Hydroxyphenyllactic acid, 2-Hydroxy-3-(p-hydroxyphenyl)propionic acid], the inhibitory concentration (Aspergillus fumigatus) is listed as 5 mg/mL.

In the case of `O=Cc1ccc(CO)o1` [HMF, 5-(hydroxymethyl)furfural], the “concentration of significant inhibition of growth and ethanol production” value [9] is listed as 8 mM.
